Measurements: the supplement of paper PMC10307832

Experiments:
Experiment in all cases: relative viability (nuclei count vs DMSO), 5 days (fraction); higher = more cells survive
[1] = compound: C1/C(=C\C2=CC=CS2)/C(=O)/C(=C/C3=CC=CS3)/C1 + CC1(C)CCC(c2ccc(Cl)cc2)=C(CN2CCN(c3ccc(C(=O)NS(=O)(=O)c4ccc(N[C@H](CCN5CCOCC5)CSc5ccccc5)c(S(=O)(=O)C(F)(F)F)c4)cc3)CC2)C1 [Navitoclax] (partner 0.5 µM)
How it was run: (§1)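 Lung cancer cell lines were seeded in 1536-well plates and dosed by pin tool the next day, with either a single drug or a fixed anchor-drug dose combined with five library-drug doses (not always all listed) spaced in √10 steps. Five days later, one step fixed the cells and stained their nuclei (final 0.05% Triton X-100, 1% formaldehyde, 1 ug/ml Hoechst), and nuclei were counted on 4× images. Relative viability is the nuclei count in treated wells divided by the count in vehicle wells, and each value is the median of duplicate plates.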

TPCA-1 + Navitoclax = compound: C1=CC(=CC=C1C2=CC(=C(S2)NC(=O)N)C(=O)N)F [TPCA-1] + CC1(C)CCC(c2ccc(Cl)cc2)=C(CN2CCN(c3ccc(C(=O)NS(=O)(=O)c4ccc(N[C@H](CCN5CCOCC5)CSc5ccccc5)c(S(=O)(=O)C(F)(F)F)c4)cc3)CC2)C1 [Navitoclax] (partner 0.5 µM)
How it was run: as §1

[2] = compound: C[C@]12O[C@H](C[C@]1(O)CO)n1c3ccccc3c3c4c(c5c6ccccc6n2c5c31)CNC4=O [Lestaurtinib] + Nc1nc2[nH]cc(CCc3ccc(C(=O)N[C@@H](CCC(=O)O)C(=O)O)cc3)c2c(=O)[nH]1 [Pemetrexed] (partner 0.2 µM)
How it was run: as §1

TPCA-1 + Palbociclib = compound: C1=CC(=CC=C1C2=CC(=C(S2)NC(=O)N)C(=O)N)F [TPCA-1] + CC(=O)c1c(C)c2cnc(Nc3ccc(N4CCNCC4)cn3)nc2n(C2CCCC2)c1=O [Palbociclib] (partner 0.5 µM)
How it was run: as §1

Cell Line | relative viability ([1]; first compound 0.2 µM) | relative viability ([1]; first compound 0.6325 µM) | relative viability ([1]; first compound 2 µM) | relative viability ([1]; first compound 6.325 µM) | relative viability ([1]; first compound 20 µM) | relative viability (TPCA-1 + Navitoclax; first compound 0.04 µM) | relative viability (TPCA-1 + Navitoclax; first compound 0.1265 µM) | relative viability (TPCA-1 + Navitoclax; first compound 0.4 µM) | relative viability (TPCA-1 + Navitoclax; first compound 1.265 µM) | relative viability (TPCA-1 + Navitoclax; first compound 4 µM) | relative viability ([2]; first compound 0.005 µM) | relative viability ([2]; first compound 0.01581 µM) | relative viability ([2]; first compound 0.05 µM) | relative viability ([2]; first compound 0.1581 µM) | relative viability ([2]; first compound 0.5 µM) | relative viability (TPCA-1 + Palbociclib; first compound 0.04 µM) | relative viability (TPCA-1 + Palbociclib; first compound 0.1265 µM) | relative viability (TPCA-1 + Palbociclib; first compound 0.4 µM) | relative viability (TPCA-1 + Palbociclib; first compound 1.265 µM) | relative viability (TPCA-1 + Palbociclib; first compound 4 µM)
NCI-H2170 | 0.655 | 0.565 | 0.678 | 0.516 | 0.547 | 0.666 | 0.52 | 0.497 | 0.559 | 0.264 | 0.258 | 0.259 | 0.259 | 0.261 | 0.175 | 0.413 | 0.404 | 0.417 | 0.391 | 0.275
A549 | 1.32 | 1.33 | 1.24 | 1.02 | 1.19 | 1.29 | 1.2 | 1.17 | 1.29 | 0.777 |  |  |  |  |  |  |  |  |  | 
SW 1573 | 0.908 | 0.979 | 1.15 | 0.862 | 0.833 | 1.14 | 0.866 | 0.916 | 0.962 | 0.948 | 1.03 | 0.86 | 0.666 | 0.303 | 0.119 | 0.429 | 0.396 | 0.396 | 0.395 | 0.407
NCI-H1975 | 1.09 | 1.19 | 1.04 | 0.912 | 1.08 | 1.16 | 1.02 | 1.1 | 0.904 | 0.782 | 0.298 | 0.295 | 0.292 | 0.281 | 0.218 | 0.593 | 0.532 | 0.613 | 0.552 | 0.142
Calu-6 | 0.855 | 0.848 | 0.91 | 0.811 | 0.857 | 0.893 | 0.795 | 0.888 | 0.726 | 0.394 |  |  |  |  |  |  |  |  |  | 
NCI-H1648 |  |  |  |  |  |  |  |  |  |  |  | 0.806 |  | 1 | 0.606 | 0.254 | 0.245 | 0.262 | 0.254 | 0.199
NCI-H3122 | 1.02 | 1.02 | 1.02 | 1.01 | 1.02 | 0.995 | 1.01 | 1.04 | 1.02 | 1.01 | 0.227 | 0.205 | 0.193 | 0.216 | 0.187 | 0.189 | 0.166 | 0.185 | 0.22 | 0.181
NCI-H2347 | 0.721 | 0.741 | 0.725 | 0.857 | 0.801 | 0.788 | 0.855 | 0.726 | 0.568 | 0.762 | 0.443 | 0.43 | 0.432 | 0.44 | 0.404 | 0.457 | 0.462 | 0.427 | 0.424 | 0.461
NCI-H2342 |  |  |  |  |  |  |  |  |  |  | 0.74 | 0.773 | 0.796 | 0.858 | 0.6 | 0.461 | 0.546 | 0.535 | 0.534 | 0.547
NCI-H358 |  |  |  |  |  |  |  |  |  |  | 0.177 | 0.164 | 0.174 | 0.136 | 0.158 | 0.152 | 0.157 | 0.137 | 0.109 | 0.108
NCI-H727 | 0.528 | 0.426 | 0.503 | 0.302 | 0.391 | 0.409 | 0.431 | 0.512 | 0.413 | 0.404 |  |  |  |  |  | 0.761 | 0.47 | 0.594 | 0.62 | 0.593
ABC-1 |  |  |  |  |  |  |  |  |  |  |  |  |  |  |  | 0.967 | 0.589 | 0.584 | 0.612 | 0.754
LCLC-103H |  |  |  |  |  |  |  |  |  |  | 0.418 | 0.484 | 0.469 | 0.472 | 0.412 | 0.52 | 0.519 | 0.465 | 0.473 | 0.494
NCI-H596 | 0.987 | 0.975 | 0.919 | 0.956 | 0.933 | 0.88 | 0.932 | 1.07 | 0.996 | 1.07 | 0.487 | 0.488 | 0.504 | 0.476 | 0.453 |  |  |  |  | 
NCI-H1563 |  |  |  |  |  |  |  |  |  |  | 0.71 | 0.855 | 0.613 | 0.797 | 0.723 |  |  |  |  | 
NCI-H522 |  |  |  |  |  |  |  |  |  |  | 1.01 | 1.08 | 1.01 | 0.784 | 0.502 | 1.15 | 0.978 | 1.06 | 1.04 | 0.953
SW 900 |  |  |  |  |  |  |  |  |  |  | 0.517 | 0.538 | 0.487 | 0.532 | 0.441 |  |  | 0.676 | 0.566 | 0.537
NCI-H650 |  |  |  |  |  |  |  |  |  |  | 0.938 | 1.01 | 0.557 | 0.573 | 0.33 | 0.347 | 0.323 | 0.343 | 0.266 | 0.279
EBC-1 | 0.439 | 0.469 | 0.478 | 0.398 | 0.497 | 0.355 | 0.397 | 0.564 | 0.351 | 0.293 |  |  |  |  |  |  |  |  |  | 
IA-LM | 0.938 | 0.925 | 0.88 | 0.565 | 0.704 | 0.855 | 0.595 | 0.72 | 0.617 | 0.678 |  |  |  |  |  |  |  |  |  | 
NCI-H1703 | 1.3 | 1.8 | 1.32 | 1.05 | 1.14 | 1.18 | 0.955 | 1.12 | 0.774 | 0.807 |  |  |  |  |  |  |  |  |  | 
NCI-H661 |  |  |  |  |  |  |  |  |  |  | 0.972 | 1.03 | 0.836 | 0.702 | 0.523 | 0.413 | 0.397 | 0.411 | 0.399 | 0.378
